What was measured:
BCR-4 [1] = assay: BCR-4 PNA microinjection, BCR-4 expression by RT-qPCR (Example 18); format: in vivo, A. pisum; details: microinjection 20 nl of 321 ng/μl; 4th and 5th instar; after 7 days; relative to Actin
Description: (§1) Microinjection was performed using NanoJet III Auto-Nanoliter Injector with an in-house pulled borosilicate needle (Drummond Scientific; Cat #3-000-203-G/XL). Aphids were transferred using a paint brush to a tubing system connected to vacuum which held them in place during the injection. The injection site was at the ventral thorax of the aphid. The injection solutions were water (negative control) or 321 ng/μl of BCR-4 PNA in water. The injection volume was 20 nl for adult (4th and 5th instar) aphids at a rate of 2 nl/sec. Each treatment group had approximately the same number of individuals injected from each of the collection plants. After injection, aphids were released into a petri dish onto fava bean leaves that had stems in an Eppendorf tube filled with 1 ml water. Survival and fecundity were monitored over the course of the experiment.
(§2) Aphids LSR-1 (which harbor only Buchnera), A. pisum were grown on fava bean plants (Vroma Vicia faba from Johnny's Selected Seeds) in a climate-controlled incubator (16 h light/8 h dark photoperiod; 60±5% RH; 25±2° C.). […]
After 7 days of treatment, RNA was extracted from the remaining aphids in each treatment group. […] RNA concentrations were measured using a nanodrop nucleic acid quantification. BCR-4 relative expression was measured by RT-qPCR. […] RT-qPCR data was analyzed using analytic (Thermo Fisher Scientific, QuantStudio Design and Analysis) software. […]

Buchnera = assay: BCR-4 PNA leaf perfusion, Buchnera/aphid copies by qPCR; format: in vivo; details: dead aphids collected 5 and 6 days post-treatment, water approximately 20
Description: After 5 and 6 days of treatment, DNA was extracted from dead aphids from each treatment group. Briefly, the aphid body surface was sterilized by dipping the aphid into a 6% bleach solution for approximately 5 seconds. Aphids were then rinsed in sterile water and DNA was extracted from each individual aphid using a DNA extraction kit (Qiagen, DNeasy kit) according to manufacturer's instructions. DNA concentration was measured using a nanodrop nucleic acid quantification, and Buchnera and aphid DNA copy numbers were measured by qPCR. The primers used for Buchnera were Buch_groES_18F ([…]; SEQ ID NO: 101) and Buch_groES_98R ([…]; SEQ ID NO: 102) (Chong and Moran, 2016 PNAS). The primers used for aphid were ApEF1a 107F ([…]; SEQ ID NO: 103) and ApEF1a 246R ([…]; SEQ ID NO: 104) (Chong and Moran, 2016 PNAS). qPCR was performed using a qPCR amplification ramp of 1.6 degrees C./s and the following conditions: 1) 95° C. for 10 minutes, 2) 95° C. for 15 seconds, 3) 55° C. for 30 seconds, 4) repeat steps 2-3 40×, 5) 95° C. for 15 seconds, 6) 55° C. for 1 minute, 7) ramp change to 0.15 degrees C./s, 8) 95° C. for 1 second. qPCR data was analyzed using analytic (Thermo Fisher Scientific, QuantStudio Design and Analysis) software. […]

Aphids LSR-1, A. pisum = assay: BCR-4 PNA microinjection, aphid survival and fecundity; format: in vivo
Description: as §1, §2
The number of offspring produced from aphids in each treatment group was also assessed during the experiment and fecundity was represented as the number of offspring produced per adult at each time point assessed. […]

BCR-4 [2] = assay: BCR-4 PNA leaf perfusion, BCR-4 expression by RT-qPCR; format: in vivo, Acyrthosiphon pisum; details: living aphids after 7 days of treatment, relative to actin
Description: After 7 days of treatment, RNA was extracted from the remaining aphids in each treatment group. Briefly, the aphid body surface was sterilized by dipping the aphid into a 6% bleach solution for approximately 5 seconds. Aphids were then rinsed in sterile water and total RNA was extracted from each individual aphid using the RNA extraction kit (Qiagen miRNeasy kit) according to manufacturer's instructions. RNA concentrations were measured using a nanodrop nucleic acid quantification. BCR-4 relative expression was measured by RT-qPCR. The primers used were ApBCR-4F ([…]; SEQ ID NO: 107) and ApBCR-4R ([…]; SEQ ID NO: 108). The internal reference gene primers were for Actin (housekeeping gene). The forward sequence was […]; SEQ ID NO: 109 and the reverse sequence was […]; SEQ ID NO: 110. […] RT-qPCR data was analyzed using analytic (Thermo Fisher Scientific, QuantStudio Design and Analysis) software.
At 7 post-treatment, RNA was extracted from live aphids and RT-pPCR was done as described above (see Microinjection Delivery Experimental Design) to quantify expression of BCR-4. […]

[3] = test system: Aphids (LSR-1 strain, Acyrthosiphon pisum); assay: BCR-4 PNA leaf perfusion, aphid development and survival; format: in vivo; details: leaf perfusion with 1 uM solution
Description: Aphids (LSR-1 strain, Acyrthosiphon pisum) were grown on fava bean plants (Vroma Vicia faba from Johnny's Selected Seeds) in a climate-controlled incubator (16 h light/8 h dark photoperiod; 60±5% RH; 25±2° C.). Prior to being used for aphid rearing, fava bean plants were grown in potting soil at 24° C. with 16 h of light and 8 h of darkness. To limit maternal effects or health differences between plants, 5-10 adults from different plants were distributed among 10 two-week-old plants and allowed to multiply to high density for 5-7 days. For experiments, first and second instar aphids were collected from healthy plants and divided into two different treatment groups: 1) those allowed to feed on leaves perfused with water, and, 2) those allowed to feed on leaves perfused with a BCR-4 PNA solution in water.
For each leaf perfusion, approximately 1 ml of water (negative control) or a 1 uM BCR-4 PNA solution was injected into a fava bean leaf. […] Aphids were monitored daily for survival and dead aphids were removed when they were discovered. In addition, the developmental stage (1st, 2nd, 3rd, 4th, and 5th instar) was determined daily throughout the experiment.
LSR-1 first and second instar aphids were divided into two groups as defined in Leaf Perfusion Experimental Design. Aphids were monitored daily and the number of aphids at each developmental stage was determined. […]

“YGRKKRRQRRR-CGTACAATAATCTCATGG [BCR-4 PNA]” was tested, and the “BCR-4 expression, fold higher in water-injected aphids than in treated aphids” value (BCR-4 [1]) was “approximately 2 fold”, the “mean ratio Buchnera/aphid copies” value (Buchnera) was “approximately 57 Buchnera/aphid copies” and the “survival versus water-injected aphids” value (Aphids LSR-1, A. pisum; microinjection 20 nl of 321 ng/μl, 4th and 5th instar) was “slight decrease in survival”. The “fecundity, average offspring produced per adult” value (Aphids LSR-1, A. pisum; microinjection, at 3 and 7 days post-treatment, water 5 offspring/adult) was 4 offspring/adult, the “median transcript levels of BCR-4, fold lower than water” value (BCR-4 [2]) was “approximately 3 fold” and the aphids alive ([3]; day 7, water 53%) was 30%. For the same substance, the “aphids in the 3rd instar stage” value ([3]; first and second instar LSR-1, day 2 post-treatment, water approximately 19%) was 8%.
